Where a name gives a salt, the structure may show the parent alone. A value given as a limit tells only on which side of the number the result lay.

Holding throughout (assay type): biochemical
The target of assay [1] is T1, recombinant human DAO (diamine oxidase) (Homo sapiens, UniProt P19801).
T1 construct: purchased R&D systems
T1 sequence (P19801 20-751): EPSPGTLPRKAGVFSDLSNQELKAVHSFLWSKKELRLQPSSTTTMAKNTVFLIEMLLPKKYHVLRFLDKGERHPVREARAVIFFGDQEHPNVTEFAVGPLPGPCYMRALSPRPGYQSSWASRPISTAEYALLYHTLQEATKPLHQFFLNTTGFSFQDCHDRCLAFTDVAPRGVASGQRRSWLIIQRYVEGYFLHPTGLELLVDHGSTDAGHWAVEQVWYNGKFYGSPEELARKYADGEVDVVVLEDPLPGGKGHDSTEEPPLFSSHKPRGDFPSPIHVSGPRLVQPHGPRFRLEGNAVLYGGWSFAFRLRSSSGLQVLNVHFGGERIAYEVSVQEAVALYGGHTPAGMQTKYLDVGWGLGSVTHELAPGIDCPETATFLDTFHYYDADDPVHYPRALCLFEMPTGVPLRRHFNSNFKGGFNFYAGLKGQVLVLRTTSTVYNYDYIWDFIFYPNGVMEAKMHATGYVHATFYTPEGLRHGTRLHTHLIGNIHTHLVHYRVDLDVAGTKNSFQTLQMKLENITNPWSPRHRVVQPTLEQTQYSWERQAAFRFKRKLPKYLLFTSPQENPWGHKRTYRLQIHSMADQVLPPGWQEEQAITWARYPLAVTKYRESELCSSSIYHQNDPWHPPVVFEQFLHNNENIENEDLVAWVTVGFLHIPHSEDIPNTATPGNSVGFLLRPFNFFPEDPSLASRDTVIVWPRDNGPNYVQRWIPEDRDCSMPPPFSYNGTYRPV
Description: Activity on recombinant human DAO, method similar to the VAP-1 assay. The following applies: substrate 1 mM putrescine; read-out: Inhibitory Activity (IC50, nM) DAO. The procedure:
(§1) The compounds according to the present technology were evaluated in terms of activity on recombinant human VAP-1 (R&D systems) by measuring the level of hydrogen peroxide in horseradish peroxidase (HRP)-coupled reaction using Amplex Red Hydrogen Peroxide Assay Kit (Molecular Probes, Invitrogen, USA). The experiment was carried out at room temperature using benzylamine as a substrate. In the HRP-coupled reaction, hydrogen peroxide oxidation of 10-acetyl-3,7-dihydroxyphenoxazine (Amplex Red reagent) produces resorufin, which is a highly fluorescent compound. Briefly, the test compound was dissolved in dimethyl sulfoxide (DMSO) at a concentration of 20 mM. The dose-response assessment was made by 1:3 serial dilution in DMSO, thereby creating an 8 point curve. The concentration of the upper part was controlled according to the efficacy of the compounds, followed by dilution with a reaction buffer solution to obtain a final DMSO concentration less than 1%. To each well of a 96 black well plate, human VAP-1 purified in 50 mM sodium phosphate buffer solution (pH7.4) was added. The test compounds dissolved in DMSO were incubated with the human VAP-1 enzymes at 37° C. for 30 minutes. After 30-minute incubation, each well is added with a reaction mixture containing 200 uM Amplex Red reagent prepared from 50 mM sodium phosphate buffer solution (pH 7.4), 1 mM benzylamine, and 1 U/mL HRP. Fluorescence intensity was measured at several time points during 1-2 hours using a microplate reader (Flexstation3, Molecular Devices) under the wavelength condition exciting at 544 nm and reading the emission at 590 nm. The inhibitory effect of the compounds was measured as a decrease (%) in the signal rate as compared to the control group without any inhibitor (only diluted DMSO). Data was fixed to a logistic model with four variables and IC50 value was calculated using GraphPad Prism program.
(§2) In addition, the compounds according to the present technology were evaluated in terms of activity on a recombinant human MAO-A (monoamine oxidase-A, Sigma-Aldrich) and a recombinant human MAO-B (monoamine oxidase-B, Sigma-Aldrich) by using as substrates, 0.5 mM tyramine and 1 mM benzylamine, respectively, with a method similar to the activity evaluation method for recombinant human VAP-1. The compounds according to the present technology were also evaluated in terms of activity on a recombinant human DAO (diamine oxidase, R&D systems) by using as a substrate 1 mM putrescine with a method similar to the activity evaluation method for recombinant human VAP-1.

Assay [2] concerns the target T2, recombinant human VAP-1 (Homo sapiens, UniProt Q16853).
T2 construct: purchased R&D systems
T2 sequence (Q16853 1-763): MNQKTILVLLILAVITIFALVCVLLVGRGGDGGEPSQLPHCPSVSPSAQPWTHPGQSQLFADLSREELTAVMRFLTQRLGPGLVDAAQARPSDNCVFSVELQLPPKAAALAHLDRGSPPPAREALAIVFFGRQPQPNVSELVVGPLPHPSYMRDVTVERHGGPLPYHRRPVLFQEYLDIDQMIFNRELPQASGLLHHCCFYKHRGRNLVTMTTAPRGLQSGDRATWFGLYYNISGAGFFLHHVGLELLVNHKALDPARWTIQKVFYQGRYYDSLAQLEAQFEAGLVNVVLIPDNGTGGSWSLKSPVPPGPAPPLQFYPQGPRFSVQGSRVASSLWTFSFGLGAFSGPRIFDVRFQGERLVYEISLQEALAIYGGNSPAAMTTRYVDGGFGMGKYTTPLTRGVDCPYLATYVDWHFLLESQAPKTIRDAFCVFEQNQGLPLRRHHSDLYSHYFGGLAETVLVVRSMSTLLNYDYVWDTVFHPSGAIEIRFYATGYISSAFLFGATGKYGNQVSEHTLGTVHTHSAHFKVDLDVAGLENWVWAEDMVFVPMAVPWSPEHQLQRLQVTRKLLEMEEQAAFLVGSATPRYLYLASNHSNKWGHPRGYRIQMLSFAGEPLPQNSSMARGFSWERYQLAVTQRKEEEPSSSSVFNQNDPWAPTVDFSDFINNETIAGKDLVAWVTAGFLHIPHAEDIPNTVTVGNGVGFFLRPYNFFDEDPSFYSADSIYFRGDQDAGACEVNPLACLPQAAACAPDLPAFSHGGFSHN
Description: Activity on recombinant human VAP-1, HRP-coupled Amplex Red hydrogen peroxide assay. The following applies: substrate 1 mM benzylamine; compound incubated with enzyme at 37° C. for 30 minutes; pH 7.4; read-out: Inhibitory Activity (IC50, nM) human VAP-1. How it is done:
as §1

Assay [3] deals with T3, recombinant human MAO-A (monoamine oxidase-A) (Homo sapiens, UniProt P21397).
T3 construct: purchased Sigma-Aldrich
T3 sequence (P21397 1-527): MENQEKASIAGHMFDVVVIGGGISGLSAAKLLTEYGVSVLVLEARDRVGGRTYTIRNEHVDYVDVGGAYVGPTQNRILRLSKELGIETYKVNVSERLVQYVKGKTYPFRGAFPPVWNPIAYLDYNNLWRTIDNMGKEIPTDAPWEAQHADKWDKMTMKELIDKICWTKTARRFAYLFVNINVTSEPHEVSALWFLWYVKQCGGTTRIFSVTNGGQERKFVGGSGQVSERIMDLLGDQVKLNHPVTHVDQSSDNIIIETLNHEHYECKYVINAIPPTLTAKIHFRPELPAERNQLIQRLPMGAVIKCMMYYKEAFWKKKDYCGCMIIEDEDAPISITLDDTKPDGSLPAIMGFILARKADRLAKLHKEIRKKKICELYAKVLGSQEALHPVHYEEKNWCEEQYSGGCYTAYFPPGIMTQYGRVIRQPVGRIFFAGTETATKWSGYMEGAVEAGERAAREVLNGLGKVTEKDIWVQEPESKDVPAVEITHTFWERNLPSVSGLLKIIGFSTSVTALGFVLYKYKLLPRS
Description: Activity on recombinant human MAO-A, method similar to the VAP-1 assay. The following applies: substrate 0.5 mM tyramine; read-out: Inhibitory Activity (IC50, nM) MAO-A. How it is done: as §1, §2

For assay [4], the target named is T4, recombinant human MAO-B (monoamine oxidase-B) (Homo sapiens, UniProt P27338).
T4 construct: purchased Sigma-Aldrich
T4 sequence (P27338 1-520): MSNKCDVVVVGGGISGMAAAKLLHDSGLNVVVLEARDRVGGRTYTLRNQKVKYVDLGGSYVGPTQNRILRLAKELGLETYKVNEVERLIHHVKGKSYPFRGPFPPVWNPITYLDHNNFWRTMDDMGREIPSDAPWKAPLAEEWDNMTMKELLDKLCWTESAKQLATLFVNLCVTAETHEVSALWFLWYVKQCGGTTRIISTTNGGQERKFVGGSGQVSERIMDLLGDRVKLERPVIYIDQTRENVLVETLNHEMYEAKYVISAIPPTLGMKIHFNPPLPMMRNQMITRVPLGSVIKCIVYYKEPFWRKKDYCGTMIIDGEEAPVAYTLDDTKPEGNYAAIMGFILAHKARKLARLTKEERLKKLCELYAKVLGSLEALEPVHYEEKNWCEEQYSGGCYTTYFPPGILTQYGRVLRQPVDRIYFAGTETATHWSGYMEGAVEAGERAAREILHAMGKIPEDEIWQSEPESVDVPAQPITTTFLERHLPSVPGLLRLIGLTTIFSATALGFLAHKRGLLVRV
Description: Activity on recombinant human MAO-B, method similar to the VAP-1 assay. The following applies: substrate 1 mM benzylamine; read-out: Inhibitory Activity (IC50, nM) MAO-B. The procedure:
as §1, §2

Take `CN1C(=O)CCc2cc(-c3ccc(Cn4cnn(C/C(=C/F)CN)c4=O)s3)ccc21` [Example 79, 6-[5-(1-[(2E)-2-(aminomethyl)-3-fluoroprop-2-en-1-yl]-5-oxo-1,5-dihydro-4H-1,2,4-triazol-4-ylmethyl)thiophen-2-yl]-1-methyl-3,4-dihydroquinolin-2(1H)-one hydrochloride]: the 50% inhibitory concentration (IC50) – broadly, the concentration that inhibits the measured activity by half – in assay [1] is 210 nM; in assay [2], 0.1 nM; in assay [3] it was > 100000 nM; in assay [4], 1900 nM.

As to `CNC(=O)c1ccc(-c2ccc(Cn3cnn(C/C(=C/F)CN)c3=O)s2)cc1` [Example 176, 4-[5-({1-[(2E)-2-(aminomethyl)-3-fluoroprop-2-en-1-yl]-5-oxo-1,5-dihydro-4H-1,2,4-triazol-4-yl}methyl)thiophen-2-yl]-N-methylbenzamide], the concentration for half-maximal inhibition (IC50) is 1100 nM in assay [1], 1.5 nM in assay [2], > 100000 nM in assay [3] and 1900 nM in assay [4].

On to `NC/C(=C\F)Cn1ncn(Cc2ccc(-c3ccc(OCC4CC4)nc3)s2)c1=O` [Example 174, 2-[(2E)-2-(aminomethyl)-3-fluoroprop-2-en-1-yl]-4-({5-[6-(cyclopropylmethoxy)pyridin-3-yl]thiophen-2-yl}methyl)-2,4-dihydro-3H-1,2,4-triazol-3-one], for which the IC50 in assay [1] was 1000 nM; in assay [2], 7.7 nM; in assay [3], > 100000 nM; in assay [4] it was 570 nM.

Consider `NC/C(=C\F)Cn1ncn(Cc2ccc(-c3ccc(=O)n(Cc4ccccc4)c3)s2)c1=O` [Example 191, 5-[5-({1-[(2E)-2-(aminomethyl)-3-fluoroprop-2-en-1-yl]-5-oxo-1,5-dihydro-4H-1,2,4-triazol-4-yl}methyl)thiophen-2-yl]-1-benzylpyridin-2(1H)-one], for which the IC50 was 130 nM in assay [1], 1.1 nM in assay [2], > 100000 nM in assay [3] and 1500 nM in assay [4].

In the case of `COc1cc(-c2ccc(Cn3cnn(C/C(=C/F)CN)c3=O)s2)cnc1OC` [Example 178, 2-[(2E)-2-(aminomethyl)-3-fluoroprop-2-en-1-yl]-4-{[5-(5,6-dimethoxypyridin-3-yl)thiophen-2-yl]methyl}-2,4-dihydro-3H-1,2,4-triazol-3-one], the IC50 in assay [1] is 280 nM; in assay [2], 0.8 nM; in assay [3], > 100000 nM; in assay [4] it was 700 nM.

For `NC/C(=C\F)Cn1ncn(Cc2ccc(-c3ccc(S(=O)(=O)N4CCOCC4)cc3)s2)c1=O` [Example 198, 2-[(2E)-2-(aminomethyl)-3-fluoroprop-2-en-1-yl]-4-({5-[4-(morpholin-4-ylsulfonyl)phenyl]thiophen-2-yl}methyl)-2,4-dihydro-3H-1,2,4-triazol-3-one], the IC50 in assay [1] was 220 nM; in assay [2], 2.2 nM; in assay [4], 6200 nM.

On to `CC(C)(C)NS(=O)(=O)c1cncc(-c2ccc(Cn3cnn(C/C(=C/F)CN)c3=O)s2)c1` [Example 186, 5-[5-({1-[(2E)-2-(aminomethyl)-3-fluoroprop-2-en-1-yl]-5-oxo-1,5-dihydro-4H-1,2,4-triazol-4-yl}methyl)thiophen-2-yl]-N-tert-butylpyridin-3-sulfonamide], for which the results for the IC50 in assay [1], in assay [2] and in assay [4] were 140 nM, 2.4 nM and 20000 nM, respectively.

For `CN(C)c1ccc(-c2ccc(Cn3cnn(C/C(=C/F)CN)c3=O)s2)cc1` [Example 5, 2-[(2E)-2-(aminomethyl)-3-fluoroprop-2-en-1-yl]-4-(5-[4-(dimethylamino)phenyl]thiophen-2-ylmethyl)-2,4-dihydro-3H-1,2,4-triazol-3-one hydrochloride], the IC50 in assay [2] is 3.3 nM; in assay [3], > 100000 nM; in assay [4] it was 680 nM.

Take `COCCNc1ncc(-c2ccc(Cn3cnn(C/C(=C/F)CN)c3=O)s2)cn1` [Example 53, 2-[(2E)-2-(aminomethyl)-3-fluoroprop-2-en-1-yl]-4-[(5-2-[(2-methoxyethyl)amino]pyrimidin-5-ylthiophen-2-yl)methyl]-2,4-dihydro-3H-1,2,4-triazol-3-one hydrochloride]: the IC50 in assay [1] is 380 nM; in assay [2], 2.6 nM; in assay [3] it was > 100000 nM.
